# Laboratory results taken from paper PMC9161374 (Science Translational Medicine, 2022).
# Where “and” joins values, the source holds several entries; their conditions need not be identical. Equal values may be shown once.
# What was measured:
# [1] = Tissue distribution study in rats; assay type: in vivo, Sprague Dawley rats; conditions: rat, oral 100 mg/kg; for Cmax, RTP in kidney / Cmax, RTP in lung / Cmax, GS-441525 in brain / Cmax, GS-441525 in kidney / Cmax, GS-441525 in lung / Cmax, GS-441525 in liver / Cmax, RTP in liver: individual animals
# Method: Three rats in each group were anesthetized at 1-, 4-, and 24-hours post-dosing. Blood samples were collected into the heparinized tubes which containing PhosSTOP and DTNB and centrifuged. Tissue samples, including liver, kidney, and lung were harvested after perfusion with saline and immediately homogenized for further analysis as previously described ([64]). […] For RMP and RTP determination, 50 μL of plasma or homogenate was immediately added to 150 μL of 2% formic acid and 5 μL of 10 μM ^13C,^15N-adenosine triphosphate (ATP) aqueous solution, then vortexed thoroughly and centrifuged at 4°C. Supernatant in a volume of 180 μL was mixed with an equivalent volume of water for solid-phase extraction (SPE) with a weak anion exchange plate (Waters Oasis WAX μElution plate). Finally, the eluate was gently evaporated to dryness under a gentle stream of air, and the residue was reconstituted with 100 μL H2O for analysis on a Waters Positive Pressure-96 processor.
# [2] = macaques, NCATS of NIH ref 47; cited from earlier work
# [3] = pKa determination (fast-UV, Sirius T3); assay type: physicochemical; conditions: methanol cosolvent titration (Sirius T3 Titrator); read-out: pKa Value (Basic)
# Method: The pK a value of test compounds were detected by using a fast-UV method with Sirius T3 Titrator. First, the blank calibration and Fast UV buffer calibration were performed where an empty sample vial was placed in the sample position. The buffer was fully titrated, and reference spectra were collected at all pHs. The sample was then detected with the following process: Methanol was used as a cosolvent to measure the psKa (cosolvent dissociation constant). Five μL of the compound stock solution of 10 mM was added to a sample vial. Three weight/volume ratios of methanol cosolvent were tested and the total starting volume for titration was set to 1.5 mL. A spectrometer detected the turbidity, and the pH range of titration by a fast UV method was 2 to 12. The titration data was obtained from a proper titration and the psKa test result was obtained by Yasuda-Shedlovsky extrapolation method for fast UV psKa method.
# [4] = Thermodynamic solubility in water; assay type: physicochemical; conditions: ultrapure water, 25°C
# Method: Test compounds were weighed out for measuring the solubility (about 1.5 mg each in three separate 1.5 mL glass vials). For each compound, one vial was used to do the standard and the other two were used to measure the solubility in duplicate. The proper volume of ultrapure water was added to each vial of the solubility sample plate using pipettes. One stir stick was added to each vial and the vials were sealed using a molded polytetrafluoroethylene (PTFE)/silicone plug. […] Then the stir sticks were removed using a magnet, and the samples were transferred from the solubility sample plate into a filter plate with pipettes. All compounds were filtered under a vacuum condition. The filtrate was diluted 1000-fold with a mixture of H2O and acetonitrile (1:1 in v/v). The plates were vortexed for 5 min. For standards (STD), the necessary volume was calculated to dissolve each standard sample to the concentration of 1.5 mg/mL. DMSO was added to each standard sample. The standard vials were covered. The standard plate was placed on the Eppendorf Thermomixer Comfort plate shaker for 5 min at 25°C and 1100 rpm. After 5 min, each compound was completely dissolved. […]
# [5] = LogP determination (1-octanol/PBS pH 7.4); assay type: physicochemical; conditions: 1-octanol/PBS pH 7.4, pH 7.4
# Method: The stock solutions of test compounds were prepared in DMSO to 10 mM or 30 mM. The 5 μL of stock solution (30 mM) or 15 μL of stock solution (10 mM) of each sample was placed into their proper 96-well rack. […] The assay was performed in duplicate. One stir stick was added to each vial and sealed with a molded PTFE/Silicone plug. […] After incubation, the stir sticks were removed by a magnet. To separate the phases, the samples were transferred and centrifuged at 25°C at 20,000 g for 20 min. The upper (1-octanol) and lower (buffer) phases were separated and transferred to the empty tubes. Aliquots of 5 μL were taken from the upper phase, followed by 495 μL of methanol. After 1 min of a vortex, aliquots of 50 μL were taken from the diluent, followed by 450 μL of methanol. Aliquots of 50 μL were taken from the lower phase, followed by 450 μL of methanol. The samples were evaluated by LC-MS/MS analysis, and all calculations were carried out using Microsoft Excel.
# SARS-CoV-2 (strain B.1) [6] = tested on: SARS-CoV-2 (strain B.1); parameters: species or system KI-hACE2 mice; conditions: mouse, in vivo
# SARS-CoV-2 (strain B.1) [7] = assay: SARS-CoV-2 infection in Ad5-hACE2 mice; assay type: in vivo, Ad5-hACE2 BALB/c mice
smiles,measurement,setting,value
"N#C[C@@]1(c2ccc3c(N)ncnn23)O[C@H](CO)[C@@H](O)[C@H]1O [GS-441524, reference compound]",Cmax,[1]; GS-441524 in brain,0.073 µmol/kg
same,Cmax,[1]; GS-441524 in kidney,35.165 µmol/kg
same,Cmax,[1]; GS-441524 in liver,8.776 µmol/kg
same,Cmax,[1]; GS-441524 in lung,5.601 µmol/kg
same,"Cmax, RTP in kidney",[1]; 1h,0 nmol/kg
same,"Cmax, RTP in lung",[1]; 1h,0 nmol/kg
same,"Cmax, GS-441525 in brain","[1]; 1h, 100 mg/kg",0.094 nmol/kg and 0 nmol/kg and 0.045 nmol/kg
same,"Cmax, GS-441525 in kidney","[1]; 1h, 100 mg/kg",42.2 nmol/kg and 25.492 nmol/kg and 37.804 nmol/kg
same,"Cmax, GS-441525 in lung","[1]; 1h, 100 mg/kg",6.048 nmol/kg and 4.152 nmol/kg and 6.604 nmol/kg
same,"Cmax, GS-441525 in brain",[1]; 4h,0 nmol/kg
same,"Cmax, RTP in kidney",[1]; 4h,0 nmol/kg
same,"Cmax, GS-441525 in kidney","[1]; 4h, 100 mg/kg",28.184 nmol/kg and 26.156 nmol/kg and 22.136 nmol/kg
same,"Cmax, GS-441525 in lung","[1]; 4h, 100 mg/kg",4.468 nmol/kg and 3.046 nmol/kg and 3.148 nmol/kg
same,"Cmax, RTP in lung","[1]; 4h, 100 mg/kg",0 nmol/kg (2×) and 0.0718 nmol/kg
same,"Cmax, RTP in kidney",[1]; 24h,0 nmol/kg
same,"Cmax, GS-441525 in brain","[1]; 24h, 100 mg/kg",0.0569 nmol/kg and 0.0928 nmol/kg and 0.0692 nmol/kg
same,"Cmax, GS-441525 in kidney","[1]; 24h, 100 mg/kg",0.0683 nmol/kg and 0.0848 nmol/kg and 0.152 nmol/kg
same,"Cmax, GS-441525 in lung","[1]; 24h, 100 mg/kg",0.134 nmol/kg and 0.0467 nmol/kg and 0.0435 nmol/kg
same,"Cmax, RTP in lung","[1]; 24h, 100 mg/kg",0 nmol/kg (2×) and 0.04488 nmol/kg
same,oral bioavailability,[2],8.3%
CC(C)C(=O)OC[C@H]1O[C@@](C#N)(c2ccc3c(N)ncnn23)[C@H](O)[C@@H]1O [ATV006],pKa,[3],3.66
same,solubility at 24 h,[4],686 µg/mL
same,logP at 1 h,[5],0.86
same,"Cmax, GS-441525 in brain","[1]; 1h, 100 mg/kg",0.717 nmol/kg and 1.164 nmol/kg and 1.176 nmol/kg
same,"Cmax, GS-441525 in kidney","[1]; 1h, 100 mg/kg",220.56 nmol/kg and 166.84 nmol/kg and 182.64 nmol/kg
same,"Cmax, GS-441525 in liver","[1]; 1h, 100 mg/kg",56.04 nmol/kg and 36.188 nmol/kg and 53.92 nmol/kg
same,"Cmax, GS-441525 in lung","[1]; 1h, 100 mg/kg",49 nmol/kg and 29.492 nmol/kg and 44.72 nmol/kg
same,"Cmax, RTP in kidney","[1]; 1h, 100 mg/kg",0.0784 nmol/kg and 0 nmol/kg and 0.0835 nmol/kg
same,"Cmax, RTP in liver","[1]; 1h, 100 mg/kg",0.279 nmol/kg and 1.085 nmol/kg and 1.739 nmol/kg
same,"Cmax, RTP in lung","[1]; 1h, 100 mg/kg",0.167 nmol/kg and 0.107 nmol/kg and 0.1 nmol/kg
same,"Cmax, GS-441525 in brain","[1]; 4h, 100 mg/kg",0.208 nmol/kg and 0.227 nmol/kg and 0.506 nmol/kg
same,"Cmax, GS-441525 in kidney","[1]; 4h, 100 mg/kg",49.24 nmol/kg and 31.336 nmol/kg and 40.16 nmol/kg
same,"Cmax, GS-441525 in liver","[1]; 4h, 100 mg/kg",21.084 nmol/kg and 14.292 nmol/kg and 18.936 nmol/kg
same,"Cmax, GS-441525 in lung","[1]; 4h, 100 mg/kg",10.048 nmol/kg and 8.088 nmol/kg and 8.604 nmol/kg
same,"Cmax, RTP in kidney","[1]; 4h, 100 mg/kg",0.354 nmol/kg and 0.345 nmol/kg and 0.186 nmol/kg
same,"Cmax, RTP in liver","[1]; 4h, 100 mg/kg",1.765 nmol/kg and 0.82 nmol/kg and 0.878 nmol/kg
same,"Cmax, RTP in lung","[1]; 4h, 100 mg/kg",0.328 nmol/kg and 0.343 nmol/kg and 0.26 nmol/kg
same,"Cmax, GS-441525 in brain","[1]; 24h, 100 mg/kg",0 nmol/kg (2×) and 0.0506 nmol/kg
same,"Cmax, GS-441525 in kidney","[1]; 24h, 100 mg/kg",0.54 nmol/kg and 7 nmol/kg and 0.459 nmol/kg
same,"Cmax, GS-441525 in liver","[1]; 24h, 100 mg/kg",0.243 nmol/kg and 2.843 nmol/kg and 0.303 nmol/kg
same,"Cmax, GS-441525 in lung","[1]; 24h, 100 mg/kg",0.136 nmol/kg and 1.289 nmol/kg and 0.0964 nmol/kg
same,"Cmax, RTP in kidney","[1]; 24h, 100 mg/kg",0.0664 nmol/kg and 0.068 nmol/kg and 0 nmol/kg
same,"Cmax, RTP in liver","[1]; 24h, 100 mg/kg",0.325 nmol/kg and 0.223 nmol/kg and 0.759 nmol/kg
same,"Cmax, RTP in lung","[1]; 24h, 100 mg/kg",0.191 nmol/kg and 0.249 nmol/kg and 0 nmol/kg
same,SARS-CoV-2 gRNA and sgRNA in lung,SARS-CoV-2 (strain B.1) [6],hardly detectable
same,"Lung viral titer, Log10 (FFU/g)","SARS-CoV-2 (strain B.1) [7]; 250mg/kg orally once daily, 2 dpi, FFA, individual mice",3.924 Log10 (FFU/g) and 2.623 Log10 (FFU/g) and 3.577 Log10 (FFU/g) and 3.827 Log10 (FFU/g)
same,viral load and pathological damage of the lung,"SARS-CoV-2 (strain B.1) [7]; ATV006 250 mg/kg, EIDD-2801 500 mg/kg, orally once daily",reduce the viral load and pathological damage of the lung
